SMILES strings stand for the structures.

The test concerns Musca domestica. The experiment in a line: Insecticidal activity against Musca domestica (house fly) assessed as mortality per fly pretreated with piperonyl butoxide measured after 24 hr. The test is classed as functional.
As for `COCC1Cc2cc([C@H]3OC[C@]4(O)[C@@H](Oc5c(OC)cccc5OC)OC[C@H]34)c(OC)cc2OC1c1ccc2c(c1)OCO2` (mixture of isomers), the LD50 stood at 1 µg.

Take `COCC1Cc2cc([C@@H]3OC[C@]4(O)[C@@H](Oc5c(OC)cccc5OC)OC[C@H]34)c(OC)cc2OC1c1ccc2c(c1)OCO2` (mixture of isomers): the LD50 is greater than 10 µg.

Regarding `COCC1Oc2cc([C@H]3OC[C@]4(O)[C@@H](Oc5c(OC)cccc5OC)OC[C@H]34)c(OC)cc2CC1c1ccc2c(c1)OCO2` (mixture of isomers), the LD50 is 0.005 µg.

For the compound `COCC1Oc2cc([C@H]3OC[C@]4(O)[C@@H](Oc5ccc6c(c5)OCO6)OC[C@H]34)c(OC)cc2OC1c1ccc2c(c1)OCO2` (mixture of isomers), the LD50 amounted to 0.18 µg.

As to `COC[C@@H]1Oc2cc([C@H]3OC[C@]4(O)[C@@H](Oc5ccc6c(c5)OCO6)OC[C@H]34)c(OC)cc2O[C@H]1c1ccc2c(c1)OCO2` (racemic), the LD50 was greater than 5 µg.

Turning to `COC[C@H]1Oc2cc([C@H]3OC[C@]4(O)[C@@H](Oc5c(OC)cc6c(c5OC)OCO6)OC[C@H]34)c(OC)cc2O[C@@H]1c1ccc2c(c1)OCO2` (racemic) [(+)-HAEDOXAN A], the LD50 turned out to be 0.00025 µg.

With `COC[C@H]1Oc2cc([C@H]3OC[C@]4(O)[C@@H](Oc5ccc6c(c5)OCO6)OC[C@H]34)c(OC)cc2O[C@@H]1c1ccc2c(c1)OCO2` (racemic) [(+)-HAEDOXAN E], the LD50 was determined as 0.1 µg.

In the case of `COC[C@H]1Oc2cc([C@H]3OC[C@]4(O)[C@@H](Oc5ccc6c(c5)OCO6)OC[C@H]34)c(OC)cc2O[C@@H]1c1ccc2c(c1)OCO2` [(+)-HAEDOXAN E], the LD50 was found to be 0.05 µg.

For the origin of these results see ChEMBL document CHEMBL3045299, “Chromano-analogs of Insecticidal Neolignans of the 1,4-Benzodioxane Type” (1993).
